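Tested at 5 concentrations; 48 h exposure; 96-well plates; endpoints linearly interpolated, else capped at highest concentration. Definition used: TGI = concentration required for complete inhibition of growth.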

What all share (assay): NCI-60 cell line screen, 48 h
The subject of assay [1] is OVCAR-4 ovarian.
Assay [2] relates to MALME-3M melanoma.
Assay [3] relates to 786-0 renal.
Assay [4] deals with SF-295 CNS.
Assay [5] relates to SK-MEL-2 melanoma.
The test system of assay [6] is SK-MEL-28 melanoma.
Assay [7] relates to DU-145 prostate.
Assay [8] relates to SN12C renal.
The subject of assay [9] is OVCAR-8 ovarian.
The subject of assay [10] is SF-539 CNS.
Assay [11] concerns HCT-116 colon.
Assay [12] has as its system NCI/ADR-RES ovarian.
Assay [13] concerns ACHN renal.

Take `Cc1cc2nc(NS(=O)(=O)c3cc(C)c(Cl)cc3S)[nH]c2cc1C`: the TGI in assay [1], in assay [2], in [3], in assay [4], in assay [5] and in assay [6] was over 100 µM in each case. Also, the TGI in assay [7], in assay [8], in assay [9], in assay [10], in assay [11] and in assay [12] was over 100 µM in each case. Moreover, in [13], the TGI is over 100 µM.
Turning to `CCN(CC)CCNc1ccc2nnn3c4ccc(OC(C)=O)cc4c(=O)c1c23`, the TGI in [1] was 8.73 µM; in assay [2], 16.3 µM; in assay [3], over 38.1 µM; in assay [4], 19.3 µM; in assay [5] it was 30.7 µM; in assay [6] it was 26.3 µM. For the same compound, the TGI is 15.1 µM in [7]; 15.8 µM in assay [8]; 16.7 µM in assay [9]; 9.47 µM in [10]; over 37.5 µM in assay [11]; 19.1 µM in [12]. Further, the TGI in assay [13] came out at 12.9 µM.
`O=S(=O)(Nc1nc(-c2cc(O)c(O)c(O)c2)cs1)c1ccc(Cl)cc1Cl`: the TGI in assay [1] is 47.9 µM; in [2], over 100 µM; in assay [3], 46.2 µM; in [4] it was 34.4 µM; in assay [5] it was over 100 µM; in assay [6] it was over 100 µM. Further, the TGI was 53.8 µM in [7]; 33.4 µM in [8]; 14.9 µM in assay [9]; 71.5 µM in [10]; 40.1 µM in [11]; 69 µM in assay [12]. Also, the TGI in assay [13] is 28.1 µM.
On to `COC(=O)C1(Cc2ccc3c(c2)CCC3)Cc2cc3c(cc2C1=O)CCC3` (stereo not given), for which the TGI was over 46.4 µM in assay [1]; over 46.4 µM in assay [2]; over 46.4 µM in [3]; over 46.4 µM in assay [4]; over 31.6 µM in assay [5]; over 46.4 µM in [6]. Besides, the TGI in [7], in assay [8], in [9], in assay [10], in [11] and in assay [12] was over 46.4 µM each time. For the same compound, the TGI in [13] was over 46.4 µM.
Consider `O=C(O)C1(CC(CCCN2CCCCC2)c2ccccc2)CCCC1` (stereo not given), for which the TGI in assay [1], in [2], in [3], in assay [4], in assay [5] and in assay [6] was over 100 µM throughout. In addition, the TGI in assay [7], in assay [8], in [9], in assay [10], in assay [11] and in assay [12] was over 100 µM in each case. In assay [13], this compound returned a TGI of over 100 µM.
For `Cc1ccc(-c2nc3n(c2/C=N\N=C(N)N)CCS3)cc1`, the TGI was determined as 30.3 µM in [1]; 31.2 µM in assay [2]; 29.3 µM in assay [3]; 24.6 µM in [4]; 25.9 µM in assay [5]; 29.4 µM in [6]. For the same compound, the TGI was 26.8 µM in [7]; 29.6 µM in [8]; 29.3 µM in [9]; 28.5 µM in [10]; 28.5 µM in [11]; over 100 µM in [12]. Besides, in [13], the TGI amounted to 28.2 µM.
Turning to `CN1CCN(CCCCNc2cc3c4ccccc4c(NCCCCN4CCN(C)CC4)cc3c3ccccc23)CC1`, the TGI in [1] is 2.87 µM; in assay [2], 5.09 µM; in [3] it was 3.48 µM; in [4] it was 3.77 µM; in assay [5], 16.5 µM; in [6], 29 µM. Further, the TGI was found to be 3.14 µM in assay [7]; 9.27 µM in [8]; 10.2 µM in assay [9]; 3.28 µM in assay [10]; 2.13 µM in assay [11]; 21.6 µM in [12]. The compound also gave a TGI in assay [13] of 17.3 µM.
On to `COc1ccc(C2c3c(-c4ccccc4)nn(-c4ccccc4)c3Oc3ncn(N)c(=N)c32)cc1OC` (stereo not given), for which the TGI in [1] worked out at 7.33 µM; in assay [2], 3.24 µM; in assay [3] it was 3 µM; in assay [4], 4.34 µM; in assay [5], 3.51 µM; in assay [6], 4.29 µM. In addition, the TGI is 8.78 µM in [7]; 8.45 µM in [8]; 5.89 µM in [9]; 2.6 µM in assay [10]; 3.24 µM in assay [11]; 6.66 µM in assay [12]. Moreover, the TGI in assay [13] turned out to be 3.69 µM.
For `CCOC(=S)SC/C(=N\OC(C)(C)OC)c1ccccc1`, the TGI in assay [1] is over 100 µM; in assay [2] it was 75.9 µM; in [3] it was over 100 µM; in [4], over 100 µM; in assay [5], 43.9 µM; in assay [6], over 100 µM. Further, the TGI was over 100 µM in [7]; over 100 µM in assay [8]; over 100 µM in assay [9]; over 100 µM in assay [10]; 77.5 µM in assay [11]; over 100 µM in [12]. Also, in assay [13], the TGI was over 100 µM.
With `COc1cc(OC)c(NC2=NCCO2)cc1Cl`, the TGI in [1] is over 100 µM; in [2], over 100 µM; in assay [3], 90 µM; in [4] it was over 100 µM; in assay [5] it was 36.3 µM; in assay [6], over 100 µM. Also, the TGI in assay [7] was over 100 µM; in assay [8], over 100 µM; in [9] it was over 100 µM; in [10], 53.3 µM; in assay [11] it was 94.5 µM; in assay [12], 91.7 µM. Moreover, in [13], the TGI was over 100 µM.

(Values after PubChem BioAssay (NCI).)
